# Experimental data taken from ChEMBL document CHEMBL1158711, “Bisindigotin, a TCDD antagonist from the Chinese medicinal herb Isatis indigotica” (J Nat Prod, 2005).
# pIC50: −log10 of the molar value.
# Experiment: Inhibition of TCDD-induced EROD activity in human HepG2 cells after 24 hrs
# Type: cell-based
row,pIC50,Compound
1,6.49,O=c1cc(-c2ccccc2)oc2c1ccc1ccccc12 [ALPHA-NAPHTHOFLAVONE]
2,6.10,O=C1C(c2[nH]c3ccccc3c2C2=c3ccccc3=N/C2=C2\Nc3ccccc3C2=O)=Nc2ccccc21 [BISINDIGOTIN]
3,5.52,CC(=O)N1/C(=C2\N=c3ccccc3=C2c2c(C3=Nc4ccccc4C3=O)[nH]c3ccccc23)C(=O)c2ccccc21
